# Calls of active or inactive are those of the source. The rule behind the calls is not given here.
# What was measured:
# [1] = molecular target: Cruzipain (Trypanosoma cruzi) (UniProt P25779); assay: Inhibition of Trypanosoma cruzi cruzain using Z-FR-AMC as substrate measured after 10 mins relative to control
# [2] = system: C2C12; assay: Cytotoxicity against mouse C2C12 cells assessed as reduction in cell viability at 10 uM incubated for 72 hrs by DAPI staining based microscopic analysis relative to control; format: toxicity; conditions: c2c12, 72 h
# [3] = system: Trypanosoma cruzi; assay: Anti-trypanosomal activity against Trypanosoma cruzi CAI/72 infected in mouse C2C12 cells at 10 uM incubated for 48 hrs relative to control; format: functional
# [4] = Selectivity index, ratio of CC50 for mouse C2C12 cells to EC50 for Trypanosoma cruzi CAI/72 intracellular amastigotes; format: toxicity, cell-based; conditions: read-out: Selectivity Index
# [5] = system: C2C12; assay: Cytotoxicity against mouse C2C12 cells assessed as reduction in cell viability at 40 uM incubated for 72 hrs by DAPI staining based microscopic analysis relative to control; format: toxicity; conditions: c2c12, 72 h
# [6] = Antioxidant activity assessed as inhibition of DPPH radical scavenging activity at 0.06 mg/ml measured after 2 hrs by absorbance based analysis relative to control; format: functional; set-up: scale not given: the % may be the effect or the level left
# [7] = Antioxidant activity assessed as inhibition of DPPH radical scavenging activity at 0.03 mg/ml measured after 2 hrs by absorbance based analysis relative to control; format: functional; set-up: scale not given: the % may be the effect or the level left
# [8] = Antioxidant activity assessed as inhibition of DPPH radical scavenging activity at 0.015 mg/ml measured after 2 hrs by absorbance based analysis relative to control; format: functional; set-up: scale not given: the % may be the effect or the level left
# [9] = Half life in female Balb/c mouse at 50 mg/kg, po by mass spectrometry; format: ADME, organism-based; conditions: in vivo
# [10] = system: C2C12; assay: Cytotoxicity against mouse C2C12 cells assessed as reduction in cell viability at 3 uM incubated for 72 hrs by DAPI staining based microscopic analysis relative to control; format: toxicity; conditions: c2c12, 72 h
# Cruzipain (Trypanosoma cruzi), sequence (P25779 123-467 limits assumed): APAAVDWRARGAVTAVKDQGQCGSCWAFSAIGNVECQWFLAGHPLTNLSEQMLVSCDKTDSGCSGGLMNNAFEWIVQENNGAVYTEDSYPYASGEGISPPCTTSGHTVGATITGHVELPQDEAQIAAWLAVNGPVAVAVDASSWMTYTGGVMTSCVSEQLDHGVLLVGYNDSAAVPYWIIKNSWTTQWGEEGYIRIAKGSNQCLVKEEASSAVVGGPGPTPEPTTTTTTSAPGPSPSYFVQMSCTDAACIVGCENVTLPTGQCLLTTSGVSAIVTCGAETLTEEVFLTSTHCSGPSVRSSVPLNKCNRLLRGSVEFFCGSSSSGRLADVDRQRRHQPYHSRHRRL
smiles,measurement,setting,value
C/C(=N\NC(N)=S)[C@]12CC3C[C@@H](C[C@H](C3)C1)C2,inhibition,[1],5.06%
C/C(=N\NC(N)=S)c1ccc(C#N)cc1,Activity,[2],> 100%
same,Activity,[3],31.58%
same,inhibition,[1],98.8%
O=C(Cn1ccnc1[N+](=O)[O-])NCc1ccccc1 [BENZNIDAZOLE],selectivity ratio,[4],> 6.91
same,Activity,[5],> 100%
C/C(=N\Nc1nc(C)c[se]1)C12CC3CC(CC(C3)C1)C2,inhibition,[1],inactive
COc1cccc(/C(C)=N/Nc2nc(C)c[se]2)c1,selectivity ratio,[4],> 3.75
COc1ccc(/C(C)=N/NC(N)=[Se])c(OC)c1,Activity,[3],inactive
C/C(=N\NC(N)=[Se])c1ccc(F)c(F)c1,Activity,[3],inactive
C/C(=N\Nc1nc(C)c[se]1)c1cccc([N+](=O)[O-])c1.Cl,selectivity ratio,[4],> 32.5
same,Activity,[6],78.3%
same,Activity,[7],78%
same,Activity,[8],77.3%
same,half-life,[9],60 min
C/C(=N\Nc1nc(C)cs1)c1ccc([N+](=O)[O-])cc1,Activity,[3],inactive
CN1CCN(C(=O)N[C@@H](Cc2ccccc2)C(=O)N[C@H](/C=C/S(=O)(=O)c2ccccc2)CCc2ccccc2)CC1 [K-777],Activity,[10],> 100%
C/C(=N\Nc1nc(C)cs1)c1ccc(C(F)(F)F)cc1,Activity,[3],inactive
C/C(=N\NC(N)=S)c1cccc(Cl)c1,selectivity ratio,[4],~1
C/C(=N\NC(N)=S)c1ccsc1,Activity,[2],> 100%
same,Activity,[3],10.89%
same,inhibition,[1],62.8%
C/C(=N\Nc1nc(C)c[se]1)c1cccc(Cl)c1,selectivity ratio,[4],> 19
C/C(=N\NC(N)=[Se])c1ccc(Br)cc1,selectivity ratio,[4],> 13
C/C(=N\NC(N)=S)C12CC3C[C@H](C1)C[C@H](C3)C2,Activity,[2],> 100%
same,Activity,[3],38.73%
O=C1O[C@H]([C@@H](O)CO)C(O)=C1O,Activity,[6],80.3%
same,Activity,[7],80.3%
same,Activity,[8],65.3%
C/C(Cc1cccc(Cl)c1)=N\NC(N)=S,selectivity ratio,[4],> 3.42
COc1ccc(/C(C)=N/Nc2nc(C)c[se]2)c(OC)c1,inhibition,[1],inactive
C/C(=N\Nc1nc(C)c[se]1)c1ccsc1,selectivity ratio,[4],> 2.68
same,inhibition,[1],inactive
